# According to PMC7832085 (Journal of medicinal chemistry, 2016):
# pIC50: −log10 of the molar value.
# How the values were obtained:
# recombinant human TDP2 = molecular target: T1, recombinant human TDP2 (Homo sapiens, UniProt O95551); experiment: Recombinant TDP2 assay; assay type: biochemical; details: for Inhibition of recombinant TDP2 (in words): recombinant human TDP2, concentrations up to 111 μM
# T1 sequence (O95551 1-362): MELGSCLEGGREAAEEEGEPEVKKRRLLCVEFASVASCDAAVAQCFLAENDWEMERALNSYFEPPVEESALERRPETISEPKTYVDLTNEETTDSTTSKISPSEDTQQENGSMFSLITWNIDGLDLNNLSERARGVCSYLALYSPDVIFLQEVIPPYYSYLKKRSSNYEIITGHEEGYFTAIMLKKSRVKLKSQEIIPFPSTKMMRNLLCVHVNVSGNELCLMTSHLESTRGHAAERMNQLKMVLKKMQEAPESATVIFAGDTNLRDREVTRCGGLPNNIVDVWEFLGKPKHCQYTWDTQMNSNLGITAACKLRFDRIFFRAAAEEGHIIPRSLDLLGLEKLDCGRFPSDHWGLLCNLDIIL
# hTDP2 DT40 cells = assay type: cell-based; details: different concentrations of EPT
# TDP1 = TDP1 (Homo sapiens, UniProt Q9NUW8); experiment: TDP1 counter assay; assay type: biochemical; details: highest testing concentration 111 μM
# Sequence of TDP1 (Q9NUW8 whole entry): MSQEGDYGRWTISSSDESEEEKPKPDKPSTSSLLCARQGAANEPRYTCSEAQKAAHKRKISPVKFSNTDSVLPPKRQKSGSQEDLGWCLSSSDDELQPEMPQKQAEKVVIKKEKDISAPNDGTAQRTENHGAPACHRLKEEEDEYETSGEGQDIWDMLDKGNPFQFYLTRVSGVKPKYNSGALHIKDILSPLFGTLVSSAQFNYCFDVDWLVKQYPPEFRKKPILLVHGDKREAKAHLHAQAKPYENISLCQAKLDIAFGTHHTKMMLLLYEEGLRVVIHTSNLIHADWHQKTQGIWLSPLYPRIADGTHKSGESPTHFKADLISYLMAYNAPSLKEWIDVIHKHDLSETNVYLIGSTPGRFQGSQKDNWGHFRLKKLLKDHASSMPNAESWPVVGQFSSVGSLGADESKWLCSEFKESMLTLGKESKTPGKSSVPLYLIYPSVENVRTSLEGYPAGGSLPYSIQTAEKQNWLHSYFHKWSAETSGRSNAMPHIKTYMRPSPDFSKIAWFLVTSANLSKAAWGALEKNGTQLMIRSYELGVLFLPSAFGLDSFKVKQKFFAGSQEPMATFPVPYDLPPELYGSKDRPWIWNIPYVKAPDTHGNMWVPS
# [1] = molecular target: T2, human TDP2 (hTDP2) whole cell extracts (Homo sapiens, UniProt O95551); experiment: Whole cell extract; assay type: biochemical
# T2 sequence (O95551 1-362): T1 sequence (O95551 1-362)
Inhibition of recombinant TDP2 (in words) (recombinant human TDP2),SMILES,Synergy in combination with ETP (hTDP2 DT40 cells),further results
inactive,"O=C1Cc2c(cccc2-c2ccco2)C(=O)N1 [Compound 45, 5-(Furan-2-yl)isoquinoline-1,3(2H,4H)-dione]",,
inactive,"O=C1Cc2c(cccc2-c2cccc([N+](=O)[O-])c2)C(=O)N1 [Compound 58, 5-(3-Nitrophenyl)isoquinoline-1,3(2H,4H)-dione]",,

# More lines, now with the values behind:
SMILES,Inhibition of recombinant TDP2 (in words) (recombinant human TDP2),Synergy in combination with ETP (hTDP2 DT40 cells),further results
"O=C1Cc2c(Br)cccc2C(=O)N1 [Compound 34, 5-Bromoisoquinoline-1,3(2H,4H)-dione]",inactive,,
"O=C1Cc2cc(I)ccc2C(=O)N1 [Compound 36, 6-Iodoisoquinoline-1,3(2H,4H)-dione]",,not observed,
"O=C1Cc2ccc(C(=O)O)cc2C(=O)N1 [Compound 40, 1,3-Dioxo-1,2,3,4-tetrahydroisoquinoline-7-carboxylic Acid]",,not observed,
"O=C1Cc2cc(-c3ccco3)ccc2C(=O)N1 [Compound 43, 6-(Furan-2-yl)isoquinoline-1,3 (2H,4H)-dione]",,not observed,pIC50 (recombinant human TDP2): 5.07; Inhibition of TDP1 (counter assay) (TDP1): no inhibition
"O=C1Cc2cc(-c3ccco3)ccc2C(=O)N1O [Compound 46, 6-(Furan-2-yl)-2-hydroxyisoquinoline-1,3(2H,4H)-dione]",inactive,,Inhibition of endogenous TDP2 in WCE (in words) [1]: inactive
"O=C1Cc2cccc(-c3cccc(O)c3)c2C(=O)N1 [Compound 53, 8-(3-Hydroxyphenyl)isoquinoline-1,3(2H,4H)-dione]",substantially reduced inhibitory activity,,
"O=C1Cc2cccc(-c3cccc([N+](=O)[O-])c3)c2C(=O)N1 [Compound 57, 8-(3-Nitrophenyl)isoquinoline-1,3(2H,4H)-dione]",substantially reduced inhibitory activity,,
O=C1Cc2cc(-c3nc4ccccc4s3)ccc2C(=O)N1 [Compound 84],,not observed,
